Article PMC1933452, “Molecular Basis of Resistance to Muramidase and Cationic Antimicrobial Peptide Activity of Lysozyme in Staphylococci” (PLoS Pathogens, 2007)
Several values for one entry are separate records, joined by “and”; a condition that tells them apart may be missing. Equal values may be shown once. Read-outs that look alike come from different tables or passages of the source. Where a SMILES comes first, the peptide text is derived from it. Bridges are numbered along the chain shown (N, C = ends). Where no end group is shown, it is not given here. [ ]: non-standard residue; d: D form. The star is where a group is joined. X1 = CC[C@H](C)CCCCC(=O)*; Dab = NCC[C@H](N)C(=O)O

Assays:
oatA::kan/dltA::spc = assay: MIC assay, oatA/dltA double mutant; format: cell-based, Staphylococcus aureus; details: for MIC: oatA::kan/dltA::spc, serial dilution, BM without glucose with 0.5% xylose, 37 °C, 20–24 h, mean of three to five independent experiments
Protocol: (§1) The overnight cultures were diluted in BM with 0.5% xylose to a concentration of 0.5 × 10^6 CFU per ml and aliquoted in 0.5-ml samples, and cationic agents in different concentrations were added.

SA113 (pTXgraRS) = assay: MIC assay, WT overexpressing graRS; format: cell-based, Staphylococcus aureus; details: for MIC: SA113 (pTXgraRS), serial dilution, BM without glucose with 0.5% xylose as inductor, 37 °C, 20–24 h, mean of three to five independent experiments
Protocol: as §1

dltA::spc = assay: MIC assay, dltA mutant; format: cell-based, Staphylococcus aureus; details: for MIC: dltA::spc, serial dilution, BM without glucose with 0.5% xylose, 37 °C, 20–24 h, mean of three to five independent experiments
Protocol: as §1

oatA::kan/graRS::erm = assay: MIC assay, oatA/graRS double mutant; format: cell-based, Staphylococcus aureus; details: for MIC: oatA::kan/graRS::erm, serial dilution, BM without glucose with 0.5% xylose, 37 °C, 20–24 h, mean of three to five independent experiments
Protocol: as §1

SA113 = format: cell-based, Staphylococcus aureus; details: for MIC: SA113, serial dilution, BM without glucose with 0.5% xylose, 37 °C, 20–24 h, mean of three to five independent experiments
Protocol: as §1

graRS::erm = assay: MIC assay, graRS mutant; format: cell-based, Staphylococcus aureus; details: for Susceptibility of graRS mutant relative to WT: from MIC values; for MIC: graRS::erm, serial dilution, BM without glucose with 0.5% xylose, 37 °C, 20–24 h, mean of three to five independent experiments
Protocol: as §1

dltA mutant = assay: Effects of cationic agents on exponential growth, dltA mutant; format: cell-based, Staphylococcus aureus; details: LP9 200 μg/ml, PMB 20 μg/ml, Gdm 8 μg/ml; for Susceptibility of growing culture (OD578nm): BM 37 °C, agent added at OD578nm 1.0, Lys or heat-inactivated Lys 300 μg/ml; for Resumption of growth in the presence of the CAMP: up to 24 h
Protocol: (§2) Overnight cultures were diluted to an OD578nm of 0.1 in 50 ml of BM and the cultures were incubated with shaking at 37 °C. OD was determined every hour. Ten milliliters of each culture were transferred into a new 100-ml flask when the cultures reached an OD578nm of nearly 1.0. Then, cationic agents, such as hen egg-white lysozyme and human lysozyme (Sigma-Aldrich, http://www.sigmaaldrich.com/), LP9 (a lysozyme-derived 9-aa peptide, 107R-A-W-V-A-W-R-N-R115–NH2) (EMC, http://www.microcollections.de/), polymyxin B (Sigma-Aldrich), gallidermin (Genmedics, http://www.genmedics.com/), or mutanolysin (Sigma), were added. Lysozyme was inactivated by heating for 1 h at 100 °C and placed on ice. The OD578nm of all cultures was measured hourly up to 7–8 h and after 24 h.

graRS mutant = assay: Effects of cationic agents on exponential growth, graRS mutant; format: cell-based, Staphylococcus aureus; details: PMB 20 μg/ml; for Susceptibility of growing culture (OD578nm) / Resumption of growth in the presence of the CAMP: graRS mutant, Gdm 8 μg/ml; for Susceptibility of growing culture (OD578nm): BM 37 °C, agent added at OD578nm 1.0, Lys or heat-inactivated Lys 300 μg/ml, LP9 200 μg/ml; for Resumption of growth in the presence of the CAMP: up to 24 h
Protocol: as §2

oatA::kan = assay: MIC assay, oatA mutant; format: cell-based, Staphylococcus aureus; details: serial dilution, BM without glucose with 0.5% xylose, 37 °C, 20–24 h, mean of three to five independent experiments
Protocol: as §1

WT SA113 = assay: Effects of cationic agents on exponential growth, WT; format: cell-based, Staphylococcus aureus; details: WT SA113, BM 37 °C, agent added at OD578nm 1.0; Lys or heat-inactivated Lys 300 μg/ml, LP9 200 μg/ml, PMB 20 μg/ml, Gdm 8 μg/ml
Protocol: as §2

graRS::erm (pTXgraRS) = assay: MIC assay, complemented graRS mutant; format: cell-based, Staphylococcus aureus; details: for MIC: graRS::erm (pTXgraRS), serial dilution, BM without glucose with 0.5% xylose as inductor, 37 °C, 20–24 h, mean of three to five independent experiments
Protocol: as §1

[1] = tested on: PG isolated from oatA mutant; assay: Turbidometric assay of PG, oatA mutant; format: biochemical, Staphylococcus aureus; details: PG of oatA mutant 0.5 mg/ml, 300 μg/ml, 80 mM PBS pH 6.4, 4 h
Protocol: (§3) One liter of BM was inoculated with an overnight culture of the WT SA113 or the mutants. Strains were grown for 12 h with shaking at 37 °C. Cells were centrifuged, washed two times with cold 0.9% NaCl, diluted in 0.9% NaCl, and boiled for 20 min. After the cells were chilled on ice, they were again centrifuged and washed twice with 0.9% NaCl. The cells were disrupted in a mechanical grinding device using glass beads ∅150–212 μm (Sigma-Aldrich) at 4 °C, centrifuged and washed two times with cold H2Obidest, boiled for 30 min in 2% SDS to remove noncovalently bound proteins, and washed four times with H2Obidest. The cell wall fragments were diluted in 0.1 M Tris/HCl (pH 6.8) and incubated with 0.5 mg/ml trypsin for 16 h at 37 °C to degrade cell-bound proteins. After centrifugation and washing with water, the PG was lyophilized.
(§4) For analyzing the susceptibility of PG to lysozyme, we used a modified method turbidometric assay as described by Clarke. The PG of the WT SA113 and the mutants were sonicated and diluted to 0.5 mg in 1 ml of 80 mM PBS (pH 6.4). After the addition of 300 μg lysozyme per ml, the decrease in optical density was monitored at the beginning (0 h) and after 4 h at OD660nm and calculated as percentages.

oatA/graRS mutant = assay: Effects of cationic agents on exponential growth, oatA/graRS mutant; format: cell-based, Staphylococcus aureus; details: BM 37 °C, agent added at OD578nm 1.0, Lys 50 μg/ml, heat-inactivated Lys 300 μg/ml, LP9 200 μg/ml
Protocol: as §2

oatA mutant = assay: Effects of cationic agents on exponential growth, oatA mutant; format: cell-based, Staphylococcus aureus; details: BM 37 °C, agent added at OD578nm 1.0, Lys or heat-inactivated Lys 300 μg/ml, LP9 200 μg/ml
Protocol: as §2

[2] = tested on: PG isolated from dltA mutant; assay: Turbidometric assay of PG, dltA mutant; format: biochemical, Staphylococcus aureus; details: PG of dltA mutant 0.5 mg/ml, 300 μg lysozyme per ml, 80 mM PBS pH 6.4, 4 h
Protocol: as §3, §4

oatA/dltA mutant = assay: Effects of cationic agents on exponential growth, oatA/dltA mutant; format: cell-based, Staphylococcus aureus; details: BM 37 °C, agent added at OD578nm 1.0, Lys 20 μg/ml, LP9 200 μg/ml
Protocol: as §2

[3] = tested on: PG isolated from oatA/graRS double mutant; assay: Turbidometric assay of PG, oatA/graRS mutant; format: biochemical, Staphylococcus aureus; details: PG of oatA/graRS double mutant 0.5 mg/ml, 300 μg lysozyme per ml, 80 mM PBS pH 6.4, 4 h
Protocol: as §3, §4

[4] = tested on: PG isolated from graRS mutant; assay: Turbidometric assay of PG, graRS mutant; format: biochemical, Staphylococcus aureus; details: PG of graRS mutant 0.5 mg/ml, 300 μg lysozyme per ml, 80 mM PBS pH 6.4, 4 h
Protocol: as §3, §4

| Compound | MIC (oatA::kan/dltA::spc) | MIC (SA113 (pTXgraRS)) | MIC (dltA::spc) | MIC (oatA::kan/graRS::erm) | MIC (SA113; 0.5 × 10^6 CFU per ml) | MIC (SA113) | Susceptibility of graRS mutant relative to WT (graRS::erm) | MIC (graRS::erm) | Susceptibility of growing culture (OD578nm) (dltA mutant) | Resumption of growth in the presence of the CAMP (dltA mutant) | Susceptibility of growing culture (OD578nm) (graRS mutant) | Resumption of growth in the presence of the CAMP (graRS mutant) | MIC (oatA::kan) | Susceptibility of growing culture (OD578nm) (WT SA113) | MIC (graRS::erm (pTXgraRS)) | Hydrolysis of isolated PG (decrease in OD660nm) [1] | Susceptibility of growing culture (OD578nm) (oatA/graRS mutant) | Susceptibility of growing culture (OD578nm) (oatA mutant) | also measured |
| --- | --- | --- | --- | --- | --- | --- | --- | --- | --- | --- | --- | --- | --- | --- | --- | --- | --- | --- | --- |
| CC[C@H](C)CCCCC(=O)N[C@@H](CCN)C(=O)N[C@H](C(=O)N[C@@H](CCN)C(=O)N[C@H]1CCNC(=O)[C@H]([C@@H](C)O)NC(=O)[C@H](CCN)NC(=O)[C@H](CCN)NC(=O)[C@H](CC(C)C)NC(=O)[C@@H](Cc2ccccc2)NC(=O)[C@H](CCN)NC1=O)[C@@H](C)O [Polymyxin B, polymyxin B] (X1-[Dab]T[Dab][Dab][Dab][dF]L[Dab][Dab]T; lactam 4-C (inferred); N-terminus assumed) | 10 μg/ml and 7.2 μM | >500 µg/mL | 10 μg/ml and 7.2 μM | 25 μg/ml and 18 μM | 350 µg/mL | 252.5 µM | 17 fold | 20 μg/ml and 14.4 μM | more susceptible | unable to resume growth | immediate growth arrest | started to grow after some time | 350 μg/ml and 252.5 μM | much less affected | >800 µg/mL | – | – | – | Increase in resistance by overexpression of graRS (pTXgraRS) in the WT (SA113 (pTXgraRS); from MIC values): approximately 2 fold; Growth of subculture challenged again (graRS mutant; new culture inoculated from 24-h graRS culture treated with polymyxin B): no growth retardation; Increase in resistance by overexpression of graRS (pTXgraRS) in the graRS mutant (graRS::erm (pTXgraRS); from MIC values): approximately 2 fold |
| Heat-inactivated lysozyme: Catalytic inactive lysozyme, inactivated by heating for 1 h at 100 °C | – | – | – | – | – | – | – | – | inhibited | – | does not affect | – | – | completely insensitive | – | no activity | able to inhibit the growth | no activity | – |
| Lysozyme | 30 μg/ml and 2.08 μM | >50,000 μg/ml | 2,000 μg/ml and 138.8 μM | 600 μg/ml and 41.6 μM | >50,000 μg/ml | – | – | >50,000 μg/ml | more sensitive | – | only marginally affected | – | 10,000 μg/ml and 694 μM | completely lysozyme resistant | >50,000 μg/ml | sensitive to the muramidase activity | highly susceptible | only marginally affected | Sensitivity of oatA/dltA double mutant relative to oatA single mutant (oatA::kan/dltA::spc; from MIC values): > 333 fold and 333 fold; Sensitivity of oatA/dltA double mutant relative to oatA/graRS double mutant (oatA::kan/dltA::spc; from MIC values): 20 fold; Hydrolysis of isolated PG (decrease in OD660nm) [2]: not hydrolyzed; Susceptibility of growing culture (OD578nm) (oatA/dltA mutant): stays lysozyme sensitive even after 24 h; Hydrolysis of isolated PG (decrease in OD660nm) [3]: hydrolysed; Sensitivity of dltA single mutant relative to WT (dltA::spc; from MIC values): over 25 fold; Sensitivity of dltA single mutant relative to oatA single mutant (dltA::spc; from MIC values): 5 fold; Sensitivity of oatA/graRS double mutant relative to oatA mutant (oatA::kan/graRS::erm; from MIC values): ~17 fold; Resistance at highest concentration (SA113; WT, at a concentration of 50 mg/ml): completely resistant; Resistance at highest concentration (graRS::erm; graRS mutant, at a concentration of 50 mg/ml): completely resistant; Hydrolysis of isolated PG (decrease in OD660nm) [4]: completely resistant |
| gallidermin (IASKFLCTPGCAKTGSFNSYCC; cysteine pairing not given here; also: lantibiotic; UniProt P21838 31-52, looked up) [lantibiotic, CAMP (Genmedics)] | 1.2 μg/ml and 0.55 μM | 9 μg/ml and 4.1 μM | 1.2 μg/ml and 0.55 μM | 3 μg/ml and 1.36 μM | 9 µg/mL | 4.1 µM | 4 fold | 2.5 μg/ml and 1.14 μM | more susceptible | unable to resume growth | immediate growth arrest | started to grow after some time | 9 μg/ml and 4.1 μM | inhibited the WT | 9 μg/ml and 4.1 μM | – | – | – | – |
